Tests used:
[1] = molecular target: T1, human M4 receptor (Homo sapiens, UniProt P08173); assay: R-SAT assay M4; assay type: cell-based; conditions: Table 3, M4; percent response of reference Carbachol
T1 construct: expressed in transfected cells; host or cells: NIH/3T3
T1 sequence (P08173 1-479): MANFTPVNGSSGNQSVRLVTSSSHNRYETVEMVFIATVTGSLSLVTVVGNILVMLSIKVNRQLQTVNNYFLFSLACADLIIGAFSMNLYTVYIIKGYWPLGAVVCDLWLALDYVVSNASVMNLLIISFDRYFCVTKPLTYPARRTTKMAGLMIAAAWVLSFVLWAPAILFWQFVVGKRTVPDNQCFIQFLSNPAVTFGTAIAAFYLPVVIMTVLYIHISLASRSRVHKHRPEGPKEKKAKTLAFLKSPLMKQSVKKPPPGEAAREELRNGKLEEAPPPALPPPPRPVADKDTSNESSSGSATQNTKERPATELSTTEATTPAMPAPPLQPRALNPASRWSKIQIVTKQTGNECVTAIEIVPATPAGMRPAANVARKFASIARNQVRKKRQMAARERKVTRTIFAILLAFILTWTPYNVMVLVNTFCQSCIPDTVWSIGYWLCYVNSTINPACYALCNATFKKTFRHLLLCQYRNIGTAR

[2] = system: drug naive mice; assay: Head twitch induction in mice; assay type: in vivo; conditions: DOI 1 mg/kg ip, OSU6162 enantiomers 9.375-300 μmol/kg ip, 10 min before registration
Protocol: The animals used in the head twitch experiments were individually placed in Macrolon type II cages and allowed to habituate to these test cages during 30 minutes before the video registration of behavior began. […] The animals were videotaped for 10 minutes; the behavior was scored during the first 5 minutes. The number of head twitches was counted from the videotapes by a person blind to the treatment.
In FIG. 5, the number of head twitches produced during 5 minutes is shown. The mice were habituated to the test cages during 30 minutes before the video registration of behavior began. […] Shown are means and SEM, n=6-12.

[3] = molecular target: T2, human 5-HT1F receptor (Homo sapiens, UniProt P30939); assay: R-SAT assay 5-HT1F; assay type: cell-based; conditions: Table 3, 5-HT1F; percent response of reference BRL 54443
T2 construct: expressed in transfected cells; host or cells: NIH/3T3
T2 sequence (P30939 1-366): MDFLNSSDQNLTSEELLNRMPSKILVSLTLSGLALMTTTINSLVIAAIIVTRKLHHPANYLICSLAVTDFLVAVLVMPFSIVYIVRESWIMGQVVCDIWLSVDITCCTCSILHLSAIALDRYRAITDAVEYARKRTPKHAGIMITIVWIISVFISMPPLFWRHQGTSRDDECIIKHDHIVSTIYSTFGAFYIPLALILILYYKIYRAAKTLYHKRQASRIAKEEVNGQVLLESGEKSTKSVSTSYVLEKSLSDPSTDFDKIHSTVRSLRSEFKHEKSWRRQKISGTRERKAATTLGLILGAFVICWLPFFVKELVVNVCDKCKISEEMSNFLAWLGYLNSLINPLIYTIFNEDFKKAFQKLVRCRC

[4] = molecular target: D2 receptors (Homo sapiens, UniProt P14416); assay: GTPγS binding assay at D2; assay type: biochemical; design: expressed in transfected cells
D2 receptors, sequence (P14416 1-414 isoform P14416-2): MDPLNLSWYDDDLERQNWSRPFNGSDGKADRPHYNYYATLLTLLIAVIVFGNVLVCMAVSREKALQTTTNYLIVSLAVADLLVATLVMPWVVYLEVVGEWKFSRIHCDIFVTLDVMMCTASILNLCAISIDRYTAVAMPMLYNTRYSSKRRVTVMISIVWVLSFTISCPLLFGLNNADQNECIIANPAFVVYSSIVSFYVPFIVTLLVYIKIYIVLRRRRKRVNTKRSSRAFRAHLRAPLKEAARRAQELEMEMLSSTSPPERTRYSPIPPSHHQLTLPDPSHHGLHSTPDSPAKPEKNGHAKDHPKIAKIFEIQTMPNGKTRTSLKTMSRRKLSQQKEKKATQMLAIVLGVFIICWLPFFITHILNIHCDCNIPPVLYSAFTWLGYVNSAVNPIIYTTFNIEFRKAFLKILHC
Protocol: Cells were not centrifuged following cell scraping, but were collected directly into the ice-cold nitrogen cavitation chamber.
50 μl/well Wheat-Germ Agglutinin SPA beads (Perkin Elmer, Shelton, Conn.) were added to the plates and the plates incubated for 1 hour. The plates were then centrifuged at 1,000×g for 10 minutes and read on a Top Count NXT (Perkin Elmer, Shelton, Conn.).
To relate the results observed in R-SAT™ to a more conventional assay system, these ligands were also tested for the ability to induce GTPγS binding through D2 receptors.

[5] = system: habituated rats; assay: Locomotion in habituated rats, photocell activity boxes; conditions: 5-35 minutes after injection; for locomotion in habituated rats: 6.25, 12.5, 50, 100, 200 and 400 μmol/kg sc, vs Control; for locomotion, accumulated unrepeated beam breaks, means±SEM of pooled groups: habituated rats, 50 μmol/kg sc, 30 minutes period, controls 23±6
Protocol: Motor activity experiments in both active and habituated rats were performed on male Sprague-Dawley rats (Charles River, Germany) weighing 280-320 g. Prior to testing, rats were housed in groups of four or five in ventilated Macrolon type IV cages for approximately one week.
Rats were housed in a normal daylight cycle and the experiments were carried out during daytime. […] During the following 5 minutes test drugs were injected, after which the rats were returned to the boxes for another 60 minutes. Five by five rows of photocell beams at floor level allowed a computer based-system to register horizontal activity. Motor activity is presented as accumulated number of unrepeated beam breaks, i.e. several consecutive breakings of one beam is counted as one beam break. The software was set to register behavior from the rats' first introduction into the arena until it was finally removed from the box, i.e. for 110 or 130 minutes.
Locomotion was measured as accumulated unrepeated beam breaks. […] This was followed by 60 minutes of registration. Data are calculated from a 30 minutes period, 5-35 minutes after injection, and plotted as means and SEM. […] Data were calculated from a 30 minutes period, 5-35 minutes after injection.
The effect of haloperidol on the locomotor stimulation was also studied in habituated rats (see FIG. 10). Locomotion was measured as accumulated unrepeated beam breaks. Rats were given haloperidol (0.05, 0.2, 0.5 mg/kg, sc) and were then allowed to habituate for 65 minutes. […] Data are calculated from a 30 minutes period, taken 5-35 minutes after injection, and plotted as means and SEM. N=4-5.

[6] = molecular target: T3, human M2 receptor (Homo sapiens, UniProt P08172); assay: R-SAT assay M2; assay type: cell-based; conditions: Table 3, M2; percent response of reference Carbachol
T3 construct: expressed in transfected cells; host or cells: NIH/3T3
T3 sequence (P08172 1-466): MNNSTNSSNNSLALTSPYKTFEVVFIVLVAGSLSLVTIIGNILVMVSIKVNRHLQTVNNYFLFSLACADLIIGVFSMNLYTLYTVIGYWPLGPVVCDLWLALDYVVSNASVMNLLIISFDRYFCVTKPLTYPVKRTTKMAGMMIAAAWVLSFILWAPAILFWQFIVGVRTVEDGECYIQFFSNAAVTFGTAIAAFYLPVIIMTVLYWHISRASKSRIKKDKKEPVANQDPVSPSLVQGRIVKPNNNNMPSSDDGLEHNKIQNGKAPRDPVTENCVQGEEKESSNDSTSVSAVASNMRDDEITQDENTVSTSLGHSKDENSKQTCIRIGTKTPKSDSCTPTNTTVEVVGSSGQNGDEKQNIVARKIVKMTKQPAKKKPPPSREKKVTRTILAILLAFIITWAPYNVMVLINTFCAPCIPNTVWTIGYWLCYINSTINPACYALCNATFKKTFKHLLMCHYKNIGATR

[7] = molecular target: T4, human alpha1A receptor (Homo sapiens, UniProt P35348); assay: R-SAT assay α1A; assay type: cell-based; conditions: Table 3, α1A; percent response of reference Phenylephrine
T4 construct: expressed in transfected cells; host or cells: NIH/3T3 cells, transient transfection, pSI vector
T4 sequence (P35348 1-466): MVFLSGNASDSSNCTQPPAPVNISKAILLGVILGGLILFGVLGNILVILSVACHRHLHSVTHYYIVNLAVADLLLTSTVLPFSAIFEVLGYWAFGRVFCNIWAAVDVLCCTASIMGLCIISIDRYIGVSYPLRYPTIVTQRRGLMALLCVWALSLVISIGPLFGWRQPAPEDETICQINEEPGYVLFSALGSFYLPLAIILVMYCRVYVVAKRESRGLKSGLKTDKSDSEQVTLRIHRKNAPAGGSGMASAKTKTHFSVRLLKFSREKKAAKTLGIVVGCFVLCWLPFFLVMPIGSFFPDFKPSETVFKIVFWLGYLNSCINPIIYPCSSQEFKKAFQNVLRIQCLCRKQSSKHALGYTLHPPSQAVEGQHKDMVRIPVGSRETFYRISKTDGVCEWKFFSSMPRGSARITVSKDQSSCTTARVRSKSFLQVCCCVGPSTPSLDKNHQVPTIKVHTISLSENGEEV

Structure (SMILES) | Eff (%) [1] | head twitches produced during 5 minutes [2] | Eff (%) [3] | Emax at 50 µM ([4]; read-out: GTPγS Eff %, response at 50 μM) | locomotion in habituated rats [5] | locomotion, accumulated unrepeated beam breaks, means±SEM of pooled groups [5] | Eff (%) [6] | Eff (%) [7] | EC50 ([4]; negative logarithm of EC50 in molar, HEK293T membranes, mean ± SEM, read-out: GTPγS pEC50 (converted)) | GTPγS Eff % ([4]; percent response of reference ligand dopamine, mean ± SEM)
CCCN1CCC[C@H](c2cccc(S(C)(=O)=O)c2)C1 [(+)-OSU6162, (3R)-3-[3-(methylsulfonyl)phenyl]-1-propylpiperidine] | 4% | produced head twitches but to a lesser degree than DOI | 22% | 36% | significant locomotor stimulation was observed for all doses but the two lowest | 95±12 unrepeated beam breaks | 22% | 22% |  | 
CCCN1CCC[C@@H](c2cccc(S(C)(=O)=O)c2)C1 [(−)-OSU6162, (3S)-3-[3-(methylsulfonyl)phenyl]-1-propylpiperidine] | 2% | produced head twitches but to a lesser degree than DOI | 30% |  | significant locomotor stimulation was observed for all doses but the lowest | 129±11 unrepeated beam breaks | 9% | 15% | 501 nM | 37 ± 9%

— patent publication US20130197032A1, “[…] COMPOUNDS FOR THE TREATMENT OF NEUROLOGICAL AND […] DISORDERS” (A. CARLSSON RESEARCH AB, priority 2010, published 2013)
